Target: T1, Tyrosine-protein kinase Mer/Tyrosine-protein kinase UFO (Human, UniProt P30530+Q12866)
T1 sequence (P30530 whole entry): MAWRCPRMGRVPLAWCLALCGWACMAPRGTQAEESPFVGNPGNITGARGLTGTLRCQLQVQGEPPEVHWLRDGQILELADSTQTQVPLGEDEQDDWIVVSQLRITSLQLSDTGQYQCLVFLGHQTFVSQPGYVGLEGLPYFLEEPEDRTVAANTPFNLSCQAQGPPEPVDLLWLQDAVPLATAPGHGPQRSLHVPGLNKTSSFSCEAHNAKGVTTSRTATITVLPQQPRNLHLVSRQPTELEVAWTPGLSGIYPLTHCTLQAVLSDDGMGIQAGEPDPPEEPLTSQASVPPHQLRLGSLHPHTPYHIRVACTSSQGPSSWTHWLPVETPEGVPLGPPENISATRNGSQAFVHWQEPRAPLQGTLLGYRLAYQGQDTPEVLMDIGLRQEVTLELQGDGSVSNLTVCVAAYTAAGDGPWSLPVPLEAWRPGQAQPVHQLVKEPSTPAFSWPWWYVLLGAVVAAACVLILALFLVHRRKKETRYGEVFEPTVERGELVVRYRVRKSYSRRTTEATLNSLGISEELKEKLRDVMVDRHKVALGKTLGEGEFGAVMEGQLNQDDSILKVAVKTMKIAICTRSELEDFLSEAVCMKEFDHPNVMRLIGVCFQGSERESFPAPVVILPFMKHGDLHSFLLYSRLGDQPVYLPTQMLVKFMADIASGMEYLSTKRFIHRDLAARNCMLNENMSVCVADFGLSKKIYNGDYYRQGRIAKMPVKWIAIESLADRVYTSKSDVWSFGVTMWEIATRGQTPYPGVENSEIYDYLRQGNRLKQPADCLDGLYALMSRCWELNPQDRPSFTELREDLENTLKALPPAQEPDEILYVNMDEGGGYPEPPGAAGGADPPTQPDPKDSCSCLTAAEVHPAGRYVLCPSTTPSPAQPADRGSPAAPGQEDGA
T1 sequence (Q12866 whole entry): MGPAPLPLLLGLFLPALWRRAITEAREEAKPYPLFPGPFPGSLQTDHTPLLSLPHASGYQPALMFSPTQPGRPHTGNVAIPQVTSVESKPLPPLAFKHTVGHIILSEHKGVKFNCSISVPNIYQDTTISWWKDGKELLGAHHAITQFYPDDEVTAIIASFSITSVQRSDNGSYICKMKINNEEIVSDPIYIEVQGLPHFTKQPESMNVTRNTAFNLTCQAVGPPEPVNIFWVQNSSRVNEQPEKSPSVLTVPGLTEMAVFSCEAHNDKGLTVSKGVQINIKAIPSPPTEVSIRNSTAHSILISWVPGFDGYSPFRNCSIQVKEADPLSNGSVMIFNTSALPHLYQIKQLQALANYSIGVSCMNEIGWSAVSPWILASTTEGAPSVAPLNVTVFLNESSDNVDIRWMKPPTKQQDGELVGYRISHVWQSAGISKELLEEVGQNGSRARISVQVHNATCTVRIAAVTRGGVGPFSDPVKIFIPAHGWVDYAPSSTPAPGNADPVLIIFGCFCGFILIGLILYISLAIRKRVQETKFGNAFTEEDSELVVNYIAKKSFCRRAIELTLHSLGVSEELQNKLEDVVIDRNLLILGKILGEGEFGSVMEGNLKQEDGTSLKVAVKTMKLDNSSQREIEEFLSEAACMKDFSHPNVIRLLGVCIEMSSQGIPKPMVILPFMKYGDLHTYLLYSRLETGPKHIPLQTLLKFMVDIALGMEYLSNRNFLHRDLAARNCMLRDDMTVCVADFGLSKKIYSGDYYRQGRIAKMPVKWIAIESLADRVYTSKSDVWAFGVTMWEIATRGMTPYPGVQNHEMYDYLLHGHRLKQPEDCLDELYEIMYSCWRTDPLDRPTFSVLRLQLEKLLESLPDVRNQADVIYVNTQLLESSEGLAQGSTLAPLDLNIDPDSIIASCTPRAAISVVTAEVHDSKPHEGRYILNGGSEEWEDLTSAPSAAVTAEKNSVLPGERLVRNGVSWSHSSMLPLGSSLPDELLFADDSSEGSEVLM
Test: TR-FRET Kinase Activity Biochemical Assay
From the text: Table 2: For the SAR (structure-activity relationship) and compound screening, LanthaScreen™ TR-FRET (Time-Resolved fluorescence energy transfer) assay was employed using the phospho-tyrosine specific Terbium (Tb)-labelded antibody with a fluorescein labeled poly-GT (glutamate-tyrosine) as a substrate. Upon excitation at 340 nm by UV, the energy from Tb donor of the antibody is transferred to the fluorescein of the phosphorylated poly GT substrate, and fluorescein emits light at 520 nm. The ratio between the intensity of primary emission at 495 nm and that of secondary emission at 520 nm was used to quantify the level of kinase activity. The recombinant proteins of human c-MER and AXL catalytic domains, Fluorescein-labeled poly-GT substrate, Tb-labeled anti-phosphorylated tyrosine antibodies, the kinase assay buffer, and 0.5M EDTA solution were purchased (Life technologies, USA). The TR-FRET assays were carried out in the white low volume 384-well plate (Corning, USA). […] 10 mM EDTA was added to terminate the enzyme reaction, and the level of phosphorylation of poly-GT substrate was determined following 30 min incubation with 2 nM Tb-labeled antibody. The fluorescence intensity was measured with Envision™ plate reader (PerkinElmer, USA).

Row | Structure (SMILES) | IC50 [µM]
1 | Cn1cc(-c2cnc(N)c(C(=O)N[C@@H]3CCN(C(=O)c4ccc(-c5cccc(Cl)c5Cl)cc4)C3)c2)cn1 [US12378224, Example 369] | < 0.01
2 | CN1CCN(Cc2ccc(-c3cnc(N)c(C(=O)N[C@@H]4CCN(C(=O)c5ccc(-c6ccccc6Cl)cc5)C4)c3)cc2)CC1 [US12378224, Example 572] | < 0.01
3 | CN1CCC(CNC(=O)c2ccc(-c3cnc(N)c(C(=O)N[C@@H]4CCN(C(=O)c5ccc(-c6ccccc6Cl)cc5)C4)c3)cc2)C1 (some centres undefined) [US12378224, Example 594] | < 0.01

Target: T2, Tyrosine-protein kinase Mer/Tyrosine-protein kinase receptor UFO/Tyrosine-protein kinase receptor TYRO3 (Human, UniProt P30530+Q06418+Q12866)
T2 sequence (Q06418 whole entry): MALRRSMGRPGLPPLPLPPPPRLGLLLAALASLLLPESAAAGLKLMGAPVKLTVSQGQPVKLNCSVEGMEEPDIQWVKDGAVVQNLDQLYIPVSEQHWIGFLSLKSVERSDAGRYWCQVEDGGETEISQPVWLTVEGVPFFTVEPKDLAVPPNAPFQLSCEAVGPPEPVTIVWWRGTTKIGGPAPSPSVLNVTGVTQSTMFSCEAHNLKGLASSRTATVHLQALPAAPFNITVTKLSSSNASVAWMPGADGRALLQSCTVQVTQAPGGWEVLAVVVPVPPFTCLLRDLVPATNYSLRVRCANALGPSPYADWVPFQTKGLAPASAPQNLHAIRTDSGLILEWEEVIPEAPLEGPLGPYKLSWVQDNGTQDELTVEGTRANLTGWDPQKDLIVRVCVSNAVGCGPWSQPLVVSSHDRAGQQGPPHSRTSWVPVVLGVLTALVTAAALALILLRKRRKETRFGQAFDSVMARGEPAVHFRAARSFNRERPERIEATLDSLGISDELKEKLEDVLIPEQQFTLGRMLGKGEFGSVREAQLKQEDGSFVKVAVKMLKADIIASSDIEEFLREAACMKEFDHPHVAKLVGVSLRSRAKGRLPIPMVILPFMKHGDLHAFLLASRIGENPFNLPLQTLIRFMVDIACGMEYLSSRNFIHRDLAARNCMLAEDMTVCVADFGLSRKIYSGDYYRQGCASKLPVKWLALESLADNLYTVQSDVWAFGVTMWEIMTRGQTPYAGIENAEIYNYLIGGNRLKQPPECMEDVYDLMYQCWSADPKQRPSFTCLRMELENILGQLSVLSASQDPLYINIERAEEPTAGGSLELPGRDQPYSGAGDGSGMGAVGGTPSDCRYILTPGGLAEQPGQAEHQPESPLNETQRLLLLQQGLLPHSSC
T2 sequence (P30530 whole entry): T1 sequence (P30530 whole entry)
T2 sequence (Q12866 whole entry): T1 sequence (Q12866 whole entry)
Test: HTRF Kinase Activity Biochemical Assay
Protocol: Table 3: For the SAR (structure-activity relationship) and compound screening, HTRF (Homogeneous Time Resolved Fluorescence) kinase activity assay was employed for all MER, AXL and TYRO3 kinases using Cisbio HTRF KinEASE™-TK kit (Cisbio, USA). The kit includes biotin-labeled TK substrate, streptavidin-XL665, Eu3+-cryptate-labeled TK antibody and HTRF Detection buffer. There are two main steps in the kinase assay: kinase reaction and detection of phosphorylated substrate. The reaction was carried out in white low volume 384-well plate (Corning, USA) with 25 nL compound in dimethyl sulfoxide in each well. […] Then the reaction was stopped after 1 hour incubation at room temperature by adding 5 uL of HTRF Detection buffer which also contains 0.375 nM Eu3+-cryptate-labeled TK antibody and 0.062 uM streptavidin-XL665(SA-XL665) to allow for detection of the phosphorylated peptide product. After 1 h incubation at room temperature, the fluorescence intensity was measured with Envision™ plate reader (PerkinElmer, USA). Upon excitation at 340 nm by UV, the energy from Eu3+ donor of the antibody is transferred to the FRET acceptor XL665, and […] emits light at 665 nm. The level of kinase activity was quantified by the HTRF ratio that calculated from the intensity of emission at 665 nm and emission at 620 nm (fluorescence intensity @ 665 nm/fluorescence intensity @ 620 nm×10,000). The recombinant protein of human MER (528-end) was purchased from Carnabio, Japan. The recombinant human AXL (473-end) and TYRO3 (455-end) were purchased from SignalChem, Canada.

Row | Structure (SMILES) | IC50 [µM]
4 | Cn1cc(-c2cnc(N)c(C(=O)N[C@@H]3CCN(C(=O)Nc4ccc(C#N)cc4)C3)c2)cn1 [US12378224, Example 7] | > 1
5 | Nc1ncc(-c2ccc(S(=O)(=O)N3CCC3)cc2)cc1C(=O)N[C@@H]1CCN(C(=O)c2ccc(-c3ccccc3Cl)cc2)C1 [US12378224, Example 574] | > 1
6 | Nc1ncc(-c2ccnc(N3CCNCC3)c2)cc1C(=O)N[C@@H]1CCN(C(=O)c2ccc(-c3ccc(F)cc3Cl)cc2)C1 [US12378224, Example 581] | < 0.01
7 | CN1CCN(c2ccc(-c3cnc(N)c(C(=O)N[C@@H]4CCN(C(=O)c5ccc(-c6ccc(F)cc6Cl)cc5)C4)c3)cc2)CC1 [US12378224, Example 585] | < 0.01
8 | CN1CCC(NC(=O)c2ccc(-c3cnc(N)c(C(=O)N[C@@H]4CCN(C(=O)c5ccc(-c6ccccc6Cl)cc5)C4)c3)cc2)CC1 [US12378224, Example 591] | < 0.01
9 | CC1CCC(NC(=O)c2ccc(-c3cnc(N)c(C(=O)N[C@@H]4CCN(C(=O)c5ccc(-c6ccccc6Cl)cc5)C4)c3)cc2)CC1 (some centres undefined) [US12378224, Example 592] | > 1

Source: BindingDB's records for patent US12378224 (Dong-A Socio Holdings Co., 2025)
